# Experimental data from patent publication US20220387405A1, “METHODS OF TREATMENT WITH N-((R)-1-(3-CHLOROPYRIDIN-2-YL)-2,2,2-TRIFLUOROETHYL)-2-((S)-2,6-DIOXOPIPERIDIN-3-YL)-1-OXOISOINDOLINE-5-CARBOXAMIDE” (CELGENE CORPORATION, priority 2021, published 2022).
# pIC50: −log10 of the molar value. Read-outs that look alike come from different tables or passages of the source.
# Assays:
# [1] = test system: Escherichia coli strain WP2 uvrA; assay: Bacterial reverse mutation test, Escherichia coli; assay type: cell-based
# Protocol: Compound 1 was tested in Salmonella typhimurium strains (TA1535, TA1537, TA98, TA100) and Escherichia coli strain WP2 uvrA at a range of concentrations up to 5000 μg/plate (the standard limit concentration for this assay), in the presence and absence of a supplemented rat liver fraction (S9 mix), using the plate incorporation version of the bacterial reverse mutation test. Dimethyl sulfoxide (DMSO) was used as the solvent.
# The mean revertant colony counts for the negative controls were within the laboratory historical control range. Bacteria were also incubated with standard positive controls, and the response of the various bacterial strains to these agents confirmed the sensitivity of the test system and the activity of the S9 mix. Therefore, the results from both the negative and positive controls confirmed the validity of the assay.
# No substantial increases in revertant colony numbers were obtained with any of the tester strains, following exposure to Compound 1 at any concentration, in either the presence or absence of S9 mix. Therefore, Compound 1 was considered to be negative for the induction of mutagenicity in this in vitro assay.
# [2] = test system: leukemic progenitors from BM samples of AML patients; assay: Colony forming assay (CFU-GM) with BM samples of AML patients; assay type: cell-based, human; settings: TP53 WT AML samples (14 of 18), compared to vehicle control
# Protocol: Ex vivo activity of Compound 1 was evaluated in normal and leukemic progenitors from BM samples of 25 AML patients using colony forming assays. […] The effect of Compound 1 on CK1α degradation, p53 accumulation, and activation is concentration- and time-dependent.
# [3] = test system: CYP3A4/5; assay: Enzymatic metabolism (enzyme identification); assay type: in vitro ADME
# From the text: Compound 1 underwent non-enzymatic hydrolysis, oxidation, N-dealkylation, glucuronidation and a combination of these pathways in hepatocytes of human and animal species. Although there were quantitative differences in the formation of Compound 1 metabolites across species, qualitatively all metabolites formed in human hepatocytes were also observed in hepatocytes and plasma of rats and/or monkeys, the two species used for nonclinical safety testing. Following multiple oral administrations of Compound 1 to rats and monkeys, Compound 1 was the predominant component in plasma of both species. The metabolites observed in plasma were similar to those observed in hepatocytes.
# [4] = Partitioning into blood cells; assay type: in vitro ADME
# From the text: (§1) There was no marked difference in free fraction among human, rat and monkey. Over the concentration ranges tested (25- to 50-fold range) in each species, there was <2-fold change in free fraction.
# [5] = test system: leukemic cells from TP53 WT AML patients; assay: PharmaFlow test (Vivia), cytotoxic effect on leukemic cells in AML patient BM samples; assay type: cell-based, human
# [6] = test system: AML cell lines with TP53 loss or mutation; assay: Activity against AML cell lines with TP53 loss or mutation; assay type: cell-based
# From the text: The remaining 5 cell lines were either medium-sensitive or completely resistant to Compound 1; the unresponsiveness to Compound 1 treatment was associated with inadequate accumulation of p53 protein and/or its transcriptional targets BAX and PUMA.
# [7] = test system: CYP3A4; assay: CYP induction in human hepatocyte culture, CYP3A4 mRNA; assay type: in vitro ADME; settings: up to 50 μM for three consecutive days
# [8] = Plasma protein binding; assay type: in vitro ADME, human and nonclinical species
# From the text: as §1
# [9] = test system: Normal T lymphocytes in BM samples; assay: PharmaFlow test, normal T lymphocytes in AML patient BM samples; assay type: cell-based, human; settings: BM samples of AML patients; for Compound 1 all but 1 patient
# [10] = test system: CYP2B6; assay: CYP induction in human hepatocyte culture, CYP2B6 mRNA; assay type: in vitro ADME; settings: up to 50 μM for three consecutive days
# [11] = GLP repeat-dose toxicity and toxicokinetics study in monkeys; assay type: in vivo, cynomolgus monkeys; settings: for AUC / Cmax: plasma, po
# Protocol: Cardiovascular assessments (electrocardiograms [ECGs] and heart rates) were conducted in conscious cynomolgus monkeys as part of the Good Laboratory Practice (GLP)-compliant repeat dose toxicity study. In this study, Compound 1 was administered by oral gavage to Cynomolgus monkeys (5/sex/group) in Groups 1-5 at doses of 0 (0.5% (w/v) Methylcellulose, 0.25% (v/v) Tween 80 in 50 mM citrate buffer pH 3), 0.03, 0.1, 0.1 and 0.3 mg/kg, respectively, intermittently using 2 different dosing regimens. Groups 2 and 3 animals were dosed for 7 consecutive days in each 4-week cycle for 2 cycles (Regimen 1: on Days 1-7 and 29-35), whereas Groups 4 and 5 animals were dosed twice weekly for 4 weeks (Regimen 2: on Days 1, 4, 8, 11, 15, 18, 22 and 25). A combination of both dosing regimens (Days 1-7, 8, 11, 15, 18, 22, 25, and 29-35) was used for administration of the vehicle to the control animals. A 9-lead ECG recording was made on all animal during pretest and on all animals in Groups 4 and 5 on Day 22 (1 hour postdose±15 minutes) and on all animals in Groups 1, 2 and 3 during Week 5 (1 hour postdose±15 minutes) using standard limb leads I, II and III; augmented leads aVR, aVL and aVF as well as chest leads MV1, MV2 and MV3. All ECGs were performed while the unanesthetized animal was sitting in an up-right position in a restraint chair. Qualitative (visual inspection) and quantitative assessments including heart rates and PR, QRS, RR, QT, and QTc intervals were performed. QTc was calculated using Bazett's formula.
# In a repeat-dose toxicity study in monkeys, Compound 1 was administered by oral gavage intermittently using 2 different dosing regimens. Animals in Regimen 1 were dosed for 7 consecutive days in each 4-week cycle for 2 cycles (0.03 or 0.1 mg/kg on Days 1-7 and 29-35), whereas animals in Regimen 2 were dosed twice weekly for 4 weeks (0.1 or 0.3 mg/kg on Days 1, 4, 8, 11, 15, 18, 22 and 25).
# End of dosing necropsy was performed on the day after the last dose administration. A 4-week recovery period was included to assess reversibility of findings. Administration of Compound 1 was associated with mortality at 0.1 mg/kg using Regimen 1 during the recovery phase. Three animals (2 males and 1 female) were euthanized for welfare reasons and one female was found dead due to reduction (marked to severe) in BM cellularity resulting in severe leukopenia and likely bacteremia, as well as in severe thrombocytopenia with disseminated petechial hemorrhage.
# [12] = target: T1, CYP2D6 (Homo sapiens, UniProt P10635); assay: CYP inhibition in human liver microsomes, CYP2D6; assay type: in vitro ADME
# T1 construct: In human liver microsomes; from tissue; host or cells: human liver microsomes
# [13] = both sexes, cynomolgus monkey, 0.03 mg/kg, Regimen 1, sexes combined
# [14] = both sexes, cynomolgus monkey, 0.1 mg/kg, Regimen 2, sexes combined
# T1 sequence (P10635 whole entry): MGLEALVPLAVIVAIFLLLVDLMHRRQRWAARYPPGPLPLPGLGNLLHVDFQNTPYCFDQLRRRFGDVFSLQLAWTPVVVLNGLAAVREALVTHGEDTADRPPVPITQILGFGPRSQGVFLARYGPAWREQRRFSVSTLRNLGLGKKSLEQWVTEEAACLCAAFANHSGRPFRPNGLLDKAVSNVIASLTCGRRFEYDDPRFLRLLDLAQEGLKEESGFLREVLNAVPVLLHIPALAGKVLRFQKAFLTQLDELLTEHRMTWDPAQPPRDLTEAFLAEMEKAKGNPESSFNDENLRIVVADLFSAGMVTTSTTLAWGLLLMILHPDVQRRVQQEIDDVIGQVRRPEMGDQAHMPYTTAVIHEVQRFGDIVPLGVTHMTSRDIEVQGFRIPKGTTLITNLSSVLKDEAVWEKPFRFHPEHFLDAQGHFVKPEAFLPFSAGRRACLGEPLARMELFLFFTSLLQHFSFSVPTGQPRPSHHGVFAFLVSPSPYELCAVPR
smiles,measurement,setting,value
"O=C1CC[C@H](N2Cc3cc(C(=O)N[C@H](c4ncccc4Cl)C(F)(F)F)ccc3C2=O)C(=O)N1 [Compound 1, N-((R)-1-(3-chloropyridin-2-yl)-2,2,2-trifluoroethyl)-2-((S)-2,6-dioxopiperidin-3-yl)-1-oxoisoindoline-5-carboxamide]",toxicity to the bacteria,[1]; highest concentrations tested,non-toxic
same,induction of mutagenicity (revertant colony numbers),"[1]; up to 5000 μg/plate, presence and absence of S9 mix",negative
same,samples with inhibited formation of CFU-GM colonies,[2],77.8%
same,enzymatic metabolism,[3],primarily mediated by CYP3A4/5
same,partitioning into blood cells,[4],no or limited partitioning
same,pIC50,[5]; Homo sapiens,6.39 to 7.66
same,number of BM samples with sensitive leukemic cells,[5]; out of 9 AML patient BM samples,5
same,sensitivity to treatment,[6],insensitive
same,mRNA expression of CYP3A4,[7],no dose-dependent increases
same,change in free fraction,[8]; over the concentration ranges tested (25- to 50-fold range) in each species,< 2 fold
same,fraction unbound,"[8]; plasma, human and nonclinical species",0.007 to 0.103
same,cytotoxicity in T lymphocytes,[9],noticeably more resistant
same,mRNA expression of CYP2B6,[10],no dose-dependent increases
same,lethality,"[11]; 0.1 mg/kg, Regimen 1, during the recovery phase",mortality
same,sex-combined mean maximum observed plasma concentration,"[11]; 0.1 mg/kg/day, Regimen 1, Day 34",31.9 ng/mL
same,fold higher than anticipated human Cmax of 0.4 ng/mL,"[11]; 0.1 mg/kg/day, Regimen 1, Day 34 vs human starting dose 0.1 mg/day",approximately 80 fold
same,sex-combined mean maximum observed plasma concentration,"[11]; 0.3 mg/kg/day, Regimen 2, Day 15",62.6 ng/mL
same,fold higher than anticipated human Cmax of 0.4 ng/mL,"[11]; 0.3 mg/kg/day, Regimen 2, Day 15 vs human starting dose 0.1 mg/day",~157 fold
same,highest non-STD (HNSTD),[11]; Regimen 1,0.03 mg/kg
same,highest non-STD (HNSTD),[11]; Regimen 2,0.1 mg/kg
same,NOAEL,[11]; Regimen 2 (twice weekly for 4 weeks),not identified
same,NOAEL,"[11]; both sexes, cynomolgus monkey, in vivo, Regimen 1 (Days 1-7 and 29-35), oral gavage, read-out: NOAEL",0.03 mg/kg
same,AUC,[11]; [13],51.4 ng·h/mL
same,Cmax,[11]; [13],9.95 ng/mL
same,AUC,[11]; [14],173 ng·h/mL
same,Cmax,[11]; [14],21.5 ng/mL
same,time-dependent inhibition,"[12]; CYP2D6, 30-minute preincubation with NADPH",not a time-dependent inhibition
same,inhibitory effect,"[12]; human liver microsomes, CYP2D6",≤ 25%
